From a flash point compilation (Sun et al. 2020)
Where a name gives a salt, the structure may show the parent alone.

Question: Which flash point does the source give for CCCCCCCCCCCCS [dodecane-1-thiol] here?
Answer: 88.00 °C

Question: With CCCCCCCCCCCCc1ccccc1 [dodecylbenzene] as the compound, how does the flash point read?
Answer: 135.00 °C

Question: For NCCN [ethane-1,2-diamine], which flash point is on record?
Answer: 34.00 °C

Question: For OCCO [ethane-1,2-diol], which flash point is on record?
Answer: 111.00 °C

Question: For CC [ethane], which flash point is on record?
Answer: -135.00 °C

Question: For CC(=O)OO [ethaneperoxoic acid], which flash point is on record?
Answer: 41.00 °C

Question: For C=COC(C)=O [ethenyl acetate], which flash point is on record?
Answer: -8.00 °C

Question: For C=COC(=O)CCC [ethenyl butanoate], which flash point is on record?
Answer: 20.00 °C

Question: Which flash point does the source give for CCOCC.FB(F)F [ethoxyethane;trifluoroborane] here?
Answer: 64.00 °C

Question: For CCOC(=O)CCl [ethyl 2-chloroacetate], which flash point is on record?
Answer: 38.00 °C

Question: With CCOC(=O)CC#N [ethyl 2-cyanoacetate] as the compound, how does the flash point read?
Answer: 110.00 °C

Question: For CCOC(=O)Cc1ccccc1 [ethyl 2-phenylacetate], which flash point is on record?
Answer: 99.00 °C

Question: With CCOCCC(=O)OCC [ethyl 3-ethoxypropanoate] as the compound, how does the flash point read?
Answer: 59.00 °C

Question: With CCOC(=O)CC(C)=O [ethyl 3-oxobutanoate] as the compound, how does the flash point read?
Answer: 57.00 °C

Question: Which flash point does the source give for CCOC(=O)NCCOc1ccc(Oc2ccccc2)cc1 [ethyl N-[2-(4-phenoxyphenoxy)ethyl]carbamate] here?
Answer: 224.00 °C

Question: Which flash point does the source give for CCOC(C)=O [ethyl acetate] here?
Answer: -4.00 °C

Question: Which flash point does the source give for CCOP(=O)(O)O [ethyl dihydrogen phosphate] here?
Answer: 116.00 °C

Question: Which flash point does the source give for CCOC=O [ethyl formate] here?
Answer: -20.00 °C

Question: With CCOS(C)(=O)=O [ethyl methanesulfonate] as the compound, how does the flash point read?
Answer: 100.00 °C

Question: Which flash point does the source give for C=CC(=O)OCC [ethyl prop-2-enoate] here?
Answer: 9.00 °C

Question: Which flash point does the source give for CCc1ccccc1 [ethylbenzene] here?
Answer: 15.00 °C

Question: Which flash point does the source give for Fc1ccccc1 [fluorobenzene] here?
Answer: -15.00 °C

Question: For C=O.O=C=Nc1ccccc1 [formaldehyde;isocyanatobenzene], which flash point is on record?
Answer: 218.00 °C

Question: Which flash point does the source give for C=O [formaldehyde] here?
Answer: 60.00 °C

Question: For NC=O [formamide], which flash point is on record?
Answer: 154.00 °C

Question: Which flash point does the source give for O=CO [formic acid] here?
Answer: 69.00 °C

Question: For O=C1C=CC(=O)O1 [furan-2,5-dione], which flash point is on record?
Answer: 103.00 °C

Question: With NCc1ccco1 [furan-2-ylmethanamine] as the compound, how does the flash point read?
Answer: 37.00 °C

Question: With C=CCCCCC [hept-1-ene] as the compound, how does the flash point read?
Answer: -4.00 °C

Question: Which flash point does the source give for CCCCCCCS [heptane-1-thiol] here?
Answer: 46.00 °C

Question: With C=CCCCC [hex-1-ene] as the compound, how does the flash point read?
Answer: -26.00 °C

Question: With CCCCCCCCCCCCCCCCS [hexadecane-1-thiol] as the compound, how does the flash point read?
Answer: 102.00 °C

Question: Which flash point does the source give for CCCCCCN [hexan-1-amine] here?
Answer: 29.00 °C

Question: With CCCCC(C)O (configuration not stated) [hexan-2-ol] as the compound, how does the flash point read?
Answer: 41.00 °C

Question: Which flash point does the source give for CCCCCCS [hexane-1-thiol] here?
Answer: 20.00 °C

Question: With CCCC(=O)C(C)=O [hexane-2,3-dione] as the compound, how does the flash point read?
Answer: 28.00 °C

Question: Which flash point does the source give for CC(=O)CCC(C)=O [hexane-2,5-dione] here?
Answer: 79.00 °C

Question: Which flash point does the source give for N#CCCCCC#N [hexanedinitrile] here?
Answer: 93.00 °C

Question: With CCCCCC(=O)O [hexanoic acid] as the compound, how does the flash point read?
Answer: 104.00 °C

Question: For C=C(C)C(=O)OCCCCCC [hexyl 2-methylprop-2-enoate], which flash point is on record?
Answer: 82.00 °C

Question: With CCCCCCOC(C)=O [hexyl acetate] as the compound, how does the flash point read?
Answer: 37.00 °C

Question: Which flash point does the source give for S=C1NCCN1 [imidazolidine-2-thione] here?
Answer: 252.00 °C

Question: Which flash point does the source give for CCI [iodoethane] here?
Answer: 61.00 °C

Question: With O=C=NC1CCCCC1 [isocyanatocyclohexane] as the compound, how does the flash point read?
Answer: 49.00 °C

Question: With C [methane] as the compound, how does the flash point read?
Answer: -188.00 °C

Question: With S=C=S [methanedithione] as the compound, how does the flash point read?
Answer: -30.00 °C

Question: With CS [methanethiol] as the compound, how does the flash point read?
Answer: -18.00 °C

Question: Which flash point does the source give for CCOC [methoxyethane] here?
Answer: -37.00 °C

Question: Which flash point does the source give for C=COC [methoxyethene] here?
Answer: -56.00 °C

Question: For COC(=O)C(Cl)Cl [methyl 2,2-dichloroacetate], which flash point is on record?
Answer: 80.00 °C

Question: Which flash point does the source give for CNc1ccccc1C(=O)OC [methyl 2-(methylamino)benzoate] here?
Answer: 91.00 °C

Question: With COC(=O)C(C)Oc1ccc(Oc2ccc(Cl)cc2Cl)cc1 (configuration not stated) [methyl 2-[4-(2,4-dichlorophenoxy)phenoxy]propanoate] as the compound, how does the flash point read?
Answer: 38.00 °C

Question: For COC(=O)c1ccccc1O [methyl 2-hydroxybenzoate], which flash point is on record?
Answer: 96.00 °C

Question: With COS(=O)(=O)c1ccc(C)cc1 [methyl 4-methylbenzenesulfonate] as the compound, how does the flash point read?
Answer: 152.00 °C

Question: With COC(=O)c1ccc(C)cc1 [methyl 4-methylbenzoate] as the compound, how does the flash point read?
Answer: 96.00 °C

Question: Which flash point does the source give for COC(=O)/C=C(\C)OP(=O)(OC)OC [methyl (E)-3-dimethoxyphosphoryloxybut-2-enoate] here?
Answer: 79.00 °C

Question: For COC(C)=O [methyl acetate], which flash point is on record?
Answer: -10.00 °C

Question: Which flash point does the source give for CCCC(=O)OC [methyl butanoate] here?
Answer: 14.00 °C

Question: For CCCCCC(=O)OC [methyl hexanoate], which flash point is on record?
Answer: 73.00 °C

Question: With COS(C)(=O)=O [methyl methanesulfonate] as the compound, how does the flash point read?
Answer: 104.00 °C

Question: For CCCCCCCCCCCCCCCCCC(=O)OC [methyl octadecanoate], which flash point is on record?
Answer: 153.00 °C

Question: For C=CC(=O)OC [methyl prop-2-enoate], which flash point is on record?
Answer: 7.00 °C

Question: Which flash point does the source give for CCC(=O)OC [methyl propanoate] here?
Answer: -2.00 °C

Question: For CS(C)=O [methylsulfinylmethane], which flash point is on record?
Answer: 95.00 °C

Question: Which flash point does the source give for Nc1cccc2ccccc12 [naphthalen-1-amine] here?
Answer: 157.00 °C

Question: With Oc1cccc2c(O)cccc12 [naphthalene-1,5-diol] as the compound, how does the flash point read?
Answer: 252.00 °C

Question: With c1ccc2ccccc2c1 [naphthalene] as the compound, how does the flash point read?
Answer: 88.00 °C

Question: Which flash point does the source give for C[N+](=O)[O-] [nitromethane] here?
Answer: 35.00 °C

Question: With C=CCCCCCCC [non-1-ene] as the compound, how does the flash point read?
Answer: 26.00 °C

Question: Which flash point does the source give for CCCCCCCCC=O [nonanal] here?
Answer: 83.00 °C

Question: Which flash point does the source give for O=C(O)CCCCCCCC(=O)O [nonanedioic acid] here?
Answer: 210.00 °C

Question: Which flash point does the source give for CCCCCCCCC(=O)O [nonanoic acid] here?
Answer: 133.00 °C

Question: For C=CCCCCCC [oct-1-ene], which flash point is on record?
Answer: 21.00 °C

Question: With CCCCCCCCCCCCCCCCCCN [octadecan-1-amine] as the compound, how does the flash point read?
Answer: 149.00 °C

Question: Which flash point does the source give for CCCCCCCCCCCCCCCCCCS [octadecane-1-thiol] here?
Answer: 185.00 °C

Question: With CCCCCCCCCCCCCCCCCCOC(=O)CCCCCCCCCCCCCCC [octadecyl hexadecanoate] as the compound, how does the flash point read?
Answer: 238.00 °C

Question: Which flash point does the source give for CCCCCC(=O)CC [octan-3-one] here?
Answer: 46.00 °C

Question: For CCCCCCCC=O [octanal], which flash point is on record?
Answer: 52.00 °C

Question: Which flash point does the source give for CCCCCCCC(=O)O [octanoic acid] here?
Answer: 110.00 °C

Question: With C=C(C)C(=O)OCCCCCCCC [octyl 2-methylprop-2-enoate] as the compound, how does the flash point read?
Answer: 91.00 °C

Question: Which flash point does the source give for C=CC(=O)OCCCCCCCC [octyl prop-2-enoate] here?
Answer: 82.00 °C

Question: Which flash point does the source give for O=CC=O [oxaldehyde] here?
Answer: 220.00 °C

Question: For O=C1CCO1 [oxetan-2-one], which flash point is on record?
Answer: 70.00 °C

Question: For C=CC(=O)OCC1CO1 (configuration not stated) [oxiran-2-ylmethyl prop-2-enoate], which flash point is on record?
Answer: 61.00 °C

Question: With C1CO1 [oxirane] as the compound, how does the flash point read?
Answer: -18.00 °C

Question: With O=C1CCCO1 [oxolan-2-one] as the compound, how does the flash point read?
Answer: 98.00 °C

Question: For OCC1CCCO1 (configuration not stated) [oxolan-2-ylmethanol], which flash point is on record?
Answer: 75.00 °C

Question: Which flash point does the source give for O=C1CCC(=O)O1 [oxolane-2,5-dione] here?
Answer: 157.00 °C

Question: For C1CCOC1 [oxolane], which flash point is on record?
Answer: -14.00 °C

Question: For C=CCCC [pent-1-ene], which flash point is on record?
Answer: -51.00 °C

Question: Which flash point does the source give for C=CC=CC [penta-1,3-diene] here?
Answer: -28.00 °C

Question: For CCCC(C)OC(C)=O (configuration not stated) [pentan-2-yl acetate], which flash point is on record?
Answer: 32.00 °C

Question: With CCC(O)CC [pentan-3-ol] as the compound, how does the flash point read?
Answer: 30.00 °C

Question: For NCCCCCN [pentane-1,5-diamine], which flash point is on record?
Answer: 62.00 °C

Question: Which flash point does the source give for OCCCCCO [pentane-1,5-diol] here?
Answer: 129.00 °C

Question: Which flash point does the source give for CCC(=O)C(C)=O [pentane-2,3-dione] here?
Answer: 19.00 °C

Question: Which flash point does the source give for CCCCCOC(C)=O [pentyl acetate] here?
Answer: 33.00 °C

Question: For CCCCCOC=O [pentyl formate], which flash point is on record?
Answer: 26.00 °C

Question: For CCCCCO[N+](=O)[O-] [pentyl nitrate], which flash point is on record?
Answer: 49.00 °C

Question: With CCCCCOC(=O)CC [pentyl propanoate] as the compound, how does the flash point read?
Answer: 41.00 °C

Question: For c1ccc(Oc2ccccc2)cc1 [phenoxybenzene], which flash point is on record?
Answer: 115.00 °C

Question: For CC(=O)Oc1ccccc1 [phenyl acetate], which flash point is on record?
Answer: 80.00 °C

Question: With OCc1ccccc1 [phenylmethanol] as the compound, how does the flash point read?
Answer: 101.00 °C

Question: For C1CNCCN1 [piperazine], which flash point is on record?
Answer: 88.00 °C

Question: Which flash point does the source give for C=C(C)OC(C)=O [prop-1-en-2-yl acetate] here?
Answer: 16.00 °C

Question: Which flash point does the source give for C=C(C)c1ccccc1 [prop-1-en-2-ylbenzene] here?
Answer: 54.00 °C

Question: For C=CC [prop-1-ene], which flash point is on record?
Answer: -108.00 °C

Question: Which flash point does the source give for C=CC=O [prop-2-enal] here?
Answer: -26.00 °C

Question: With C=CC(=O)O [prop-2-enoic acid] as the compound, how does the flash point read?
Answer: 54.00 °C

Question: Which flash point does the source give for C=CC(=O)Cl [prop-2-enoyl chloride] here?
Answer: 14.00 °C

Question: Which flash point does the source give for C=CCOC(=O)COCCC(C)C [prop-2-enyl 2-(3-methylbutoxy)acetate] here?
Answer: 68.00 °C

Question: Which flash point does the source give for C=CCOC(=O)CC(C)C [prop-2-enyl 3-methylbutanoate] here?
Answer: 39.00 °C

Question: Which flash point does the source give for CC(C)N [propan-2-amine] here?
Answer: -37.00 °C

Question: With CC(C)=O [propan-2-one] as the compound, how does the flash point read?
Answer: -18.00 °C

Question: Which flash point does the source give for CC(C)OC(=O)Cc1ccccc1 [propan-2-yl 2-phenylacetate] here?
Answer: 95.00 °C

Question: Which flash point does the source give for CC(C)OC=O [propan-2-yl formate] here?
Answer: -6.00 °C

Question: For CC(O)CO (configuration not stated) [propane-1,2-diol], which flash point is on record?
Answer: 99.00 °C

Question: For CCCS [propane-1-thiol], which flash point is on record?
Answer: -15.00 °C

Question: For CC(C)S [propane-2-thiol], which flash point is on record?
Answer: -34.00 °C

Question: Which flash point does the source give for CCC(=O)O [propanoic acid] here?
Answer: 54.00 °C

Question: With CCC(=O)OC(=O)CC [propanoyl propanoate] as the compound, how does the flash point read?
Answer: 63.00 °C

Question: Which flash point does the source give for C=C(C)C(=O)OCCC [propyl 2-methylprop-2-enoate] here?
Answer: 30.00 °C
